assay: Whole blood stability assay; format: in vitro ADME; details: prodrug 50 nM, fresh pooled human whole blood, 37 degrees C.; read-out: t1/2 at 37 degrees C. in human whole blood
Method: Naltrexone prodrug stability was assessed using freshly collected whole blood (within 24-hr collection) from pooled human (n=3) donors. The incubation mixtures were prepared by spiking the prodrugs into pre-warmed (37 degrees C.) fresh whole blood to a final concentration of 50 nM. After gentle mixing, aliquots of incubation mixtures were immediately transferred into four different 96-deep well plates. One plate was used for each time point. The plates were incubated at 37 degrees C. at a shaking speed of 100 rpm. At time points 15, 30, 60 and 120 minutes, the reaction was quenched by addition of a mixture of water and acetonitrile containing the internal standard (naltrexone-D3). Time point 0 minutes was prepared separately by spiking the prodrugs into a quenched whole blood to obtain a final concentration of 50 nM. All samples were vortexed at a low speed for 15 min and centrifuged at 3900 rpm for 15 min. Supernatants were transferred into 96-well plates for LC-MS/MS analysis to monitor the depletion of the prodrugs and the formation of naltrexone.
The amount of remaining prodrug and released naltrexone for each sample was quantitated against the calibration curves prepared with the whole blood. The human whole blood was purchased from BioreclamationIVT (Westbury, N.Y., USA). Naltrexone-D3 was purchased from CERILLIANT® (Round Rock, Tex., USA). […] Where multiple runs have been completed, average values are reported.

In order of falling half-life at 50 nM:
1. Cc1c(CC(=O)Oc2ccc3c4c2O[C@H]2C(=O)CC[C@@]5(O)[C@@H](C3)N(CC3CC3)CC[C@]425)ccc2c(C)c(CC(=O)Oc3ccc4c5c3O[C@H]3C(=O)CC[C@@]6(O)[C@@H](C4)N(CC4CC4)CC[C@]536)ccc12 [Compound 7, bis((4R,4aS,7aR,12bS)-3-(cyclopropylmethyl)-4a-hydroxy-7-oxo-2,3,4,4a,5,6,7,7a-octahydro-1H-4,12-methanobenzofuro[3,2-e]isoquinolin-9-yl) 2,2′-(1,5-dimethylnaphthalene-2,6-diyl)diacetate]  58.6 min
2. O=C(Oc1ccc2c3c1O[C@H]1C(=O)CC[C@@]4(O)[C@@H](C2)N(CC2CC2)CC[C@]314)c1ccc(C(=O)Oc2ccc3c4c2O[C@H]2C(=O)CC[C@@]5(O)[C@@H](C3)N(CC3CC3)CC[C@]425)cc1 [Reference Compound A, NTX-3-terephthaloyl-NTX, reference compound]  54.7 min
3. O=C(Cc1cccc2cccc(CC(=O)Oc3ccc4c5c3O[C@H]3C(=O)CC[C@@]6(O)[C@@H](C4)N(CC4CC4)CC[C@]536)c12)Oc1ccc2c3c1O[C@H]1C(=O)CC[C@@]4(O)[C@@H](C2)N(CC2CC2)CC[C@]314 [Compound 9, bis((4R,4aS,7aR,12bS)-3-(cyclopropylmethyl)-4a-hydroxy-7-oxo-2,3,4,4a,5,6,7,7a-octahydro-1H-4,12-methanobenzofuro[3,2-e]isoquinolin-9-yl) 2,2′-(naphthalene-1,8-diyl)diacetate]  40.9 min
4. O=C(CCc1ccc2cc(CCC(=O)Oc3ccc4c5c3O[C@H]3C(=O)CC[C@@]6(O)[C@@H](C4)N(CC4CC4)CC[C@]536)ccc2c1)Oc1ccc2c3c1O[C@H]1C(=O)CC[C@@]4(O)[C@@H](C2)N(CC2CC2)CC[C@]314 [Compound 8, bis((4R,4aS,7aR,12bS)-3-(cyclopropylmethyl)-4a-hydroxy-7-oxo-2,3,4,4a,5,6,7,7a-octahydro-1H-4,12-methanobenzofuro[3,2-e]isoquinolin-9-yl) 3,3′-(naphthalene-2,6-diyl)dipropionate]  26.3 min
5. O=C(Cc1ccc2c(Cl)c(CC(=O)Oc3ccc4c5c3O[C@H]3C(=O)CC[C@@]6(O)[C@@H](C4)N(CC4CC4)CC[C@]536)ccc2c1Cl)Oc1ccc2c3c1O[C@H]1C(=O)CC[C@@]4(O)[C@@H](C2)N(CC2CC2)CC[C@]314 [Compound 6, bis((4R,4aS,7aR,12bS)-3-(cyclopropylmethyl)-4a-hydroxy-7-oxo-2,3,4,4a,5,6,7,7a-octahydro-1H-4,12-methanobenzofuro[3,2-e]isoquinolin-9-yl) 2,2′-(1,5-dichloronaphthalene-2,6-diyl)diacetate]  25.7 min
6. O=C(Cc1ccc2c(F)c(CC(=O)Oc3ccc4c5c3O[C@H]3C(=O)CC[C@@]6(O)[C@@H](C4)N(CC4CC4)CC[C@]536)ccc2c1F)Oc1ccc2c3c1O[C@H]1C(=O)CC[C@@]4(O)[C@@H](C2)N(CC2CC2)CC[C@]314 [Compound 5, bis((4R,4aS,7aR,12bS)-3-(cyclopropylmethyl)-4a-hydroxy-7-oxo-2,3,4,4a,5,6,7,7a-octahydro-1H-4,12-methanobenzofuro[3,2-e]isoquinolin-9-yl) 2,2′-(1,5-difluoronaphthalene-2,6-diyl)diacetate]  20.4 min
7. O=C(Cc1ccc2ccc(CC(=O)Oc3ccc4c5c3O[C@H]3C(=O)CC[C@@]6(O)[C@@H](C4)N(CC4CC4)CC[C@]536)cc2c1)Oc1ccc2c3c1O[C@H]1C(=O)CC[C@@]4(O)[C@@H](C2)N(CC2CC2)CC[C@]314 [Compound 10, bis((4R,4aS,7aR,12bS)-3-(cyclopropylmethyl)-4a-hydroxy-7-oxo-2,3,4,4a,5,6,7,7a-octahydro-1H-4,12-methanobenzofuro[3,2-e]isoquinolin-9-yl) 2,2′-(naphthalene-2,7-diyl)diacetate]  14.7 min

— patent publication US10799496B2, “Naphthylenyl compounds for long-acting injectable compositions and related methods” (priority 2018, dated 2020)
